These results are taken from patent US20160249841A1, “[…] ELECTROENCEPHALOGRAPHIC OSCILLATIONS” (Galenea Corp., priority 2012, published 2016).

Test [1] concerns CNhetKO mice. The test is described as follows: EEG oscillations in PFC during onset of exploratory activity in novel object recognition task, CNhetKO mice. The test is classed as in vivo, mouse. To be noted: 5 mg/kg subcutaneously. The source says: Alterations in electroencephalographic oscillations (e.g., shifts in power) recorded from the prefrontal cortex (PFC) of mice could result from engagement of executive functions necessary for attending to and actively exploring a new environment; processes unrelated to executive function may also be involved. An integrated system was set up that combined automated real-time behavioral analysis (Topscan, CleverSys, Inc., Reston, Va.) together with multichannel electrophysiology equipment (MC_Rack, MultiChannel Systems, GmbH, Reutlingen, Germany) to analyze PFC activity during different phases of a novel object recognition (NOR) task in mice that were well habituated to the test apparatus.
EEGs were recorded from control and calcineurin heterozygous knock-out (CNhetKO) subjects during performance of a novel-object recognition task. […] During each phase, the behavior of each subject was monitored in real time and synchronized to recorded EEG oscillations (Topscan, CleverSys Inc.). […]
The area under the curve was computed from spectrograms to quantify power in different frequency bands [Theta (4-12 Hz) and GammaHI (65-90 Hz)] of the EEG oscillations. […]
The effects of D4 agonist PD168077 on the EEG oscillations observed during onset of the exploratory activity in CNhetKO mice were evaluated. […] Time-frequency maps of baseline conditions (no D4 agonist) and treatment conditions were evaluated.

The test system of test [2] is CNhetKO mice. The test is described as follows: Novel object recognition task performance, CNhetKO mice. Type of test: in vivo, mouse. As to the method:
EEGs were recorded from control and calcineurin heterozygous knock-out (CNhetKO) subjects during performance of a novel-object recognition task. Control and CNhetKO mice were exposed to two identical objects during a 10 min sample phase. After a 24 hour delay period, subjects were exposed to a familiar object and a novel object. During each phase, the behavior of each subject was monitored in real time and synchronized to recorded EEG oscillations (Topscan, CleverSys Inc.). As depicted in FIG. 4, an exploratory activity occurred when a subject's nose was orientated towards an object and was within a 2 cm radius surrounding the object for at least 200 msec, while the subject's center of mass (‘*’) was outside of 2 cm radius. […]
The effects of D4 agonist PD168077 on the EEG oscillations observed during onset of the exploratory activity in CNhetKO mice were evaluated. CNhetKO subjects were treated with PD 168077 (5 mg/kg) subcutaneously and EEG oscillations associated with exploratory activity in a novel object recognition task were analyzed. Exploratory activity in the presence of novel objects and familiar objects was analyzed for up to 90 min post-injection. Time-frequency maps of baseline conditions (no D4 agonist) and treatment conditions were evaluated.

In the next test the test system is Coloboma mice. To be noted: low doses; cited from earlier work.
For a further test, the system named is wild-type mice. As to the kind of experiment: EEG time-frequency maps of mean power during onset of exploratory activity, wild-type mice treated with PCP. Type of test: in vivo, mouse. To be noted: wild-type mice treated with PCP versus untreated, FIG. 10. The source says: Time-frequency maps were produced of mean power for untreated wild-type mice and mice treated with PCP. A signature in EEG oscillations observed in untreated mice was absent following treatment with PCP. This signature was characterized by peaks in early beta (20-30 Hz) activity, gammaLow (30-40 Hz) and gammaHi (80-100) Hz activity.

Regarding `Cc1cccc(C(=O)NCN2CCN(c3ccccc3C#N)CC2)c1` [PD 168077], the “Signature of EEG oscillation observed during onset of the exploratory activity (time-frequency maps)” value with CNhetKO mice [1] (CNhetKO mice, up to 90 min post-injection, versus baseline (no D4 agonist)) was “restored the signature of EEG oscillation”. For the same compound, the “Gamma responses (GammaHi 65-90 Hz EEG power) in PFC elicited by object exploration” value in the test with CNhetKO mice [1] (CNhetKO subjects, analyzed up to 90 min post-injection, FIG. 6) was “transiently restored normal Gamma responses”. Besides, the “Time spent exploring novel objects versus familiar objects” value with CNhetKO mice [2] (CNhetKO mice, versus cyclodextrin control, FIG. 8B) is “significantly more time exploring novel objects compared with familiar objects”. The “Performance in the novel object recognition cognitive paradigm” value with CNhetKO mice [2] (CNhetKO subjects, 5 mg/kg s.c. 30 min prior to familiarization phase and again 30 min prior to test phase after 24 hr) is “essentially completely restored performance”.

On to `C[C@H](N)Cc1ccccc1` [D-amphetamine], for which, in the test with Coloboma mice, the Hyperkinesis result is listed as “ameliorated”.

Take `c1ccc(C2(N3CCCCC3)CCCCC2)cc1` [PCP, Phencyclidine]: the “Signature in EEG oscillations (peaks in early beta 20-30 Hz, gammaLow 30-40 Hz, gammaHi 80-100 Hz)” value with wild-type mice is “absent”.
